According to patent publication US20050171005A1, “Methods and compositions for modulating beta-catenin phosphorylation” (priority 2002, published 2005):

Assays:
β-catenin [1] = assay type: cell-based, human; settings: 293 cells
Procedure: (§1) 293T cells were transiently transfected using the calcium phosphate procedure. The following expression vectors were used: Myc- or Flag-tagged β-catenin (0.5 μg) (a human β-catenin clone obtained from R. Grosschedl), Flag- or Myc-tagged axin (2 μg) (mouse cDNA provided by F. Costantini), HA-GSK3β or Flag-GSK3β (3.5 μg) (a rabbit clone obtained from J R Woodgett) [Woodgett, J. R. (1990) EMBO J 9: 2431-2438]. β-catenin mutants include DP, (S33, S37, T40, S45, S47 substituted to alanine) single point mutants (S29F, S33Y, S37A, T41A, S45F) and 45PKA (T41S, T42R, A43R). Additional vectors: Flag-WD, a dominant negative β-TrCP fragment (ΔF-box) [Yaron, A. et al. (1998) Nature 396: 590-594]; Flag-Dvl-1 (a mouse cDNA clone obtained from S-I Yanagawa) [Lee, J. S. et al. (1999) J Biol Chem 274: 21464-21470]; WT and dominant negative Xenopus CKIε (XCKIε-D128N) (provided by T. Shcwarz-Romond) [McKay, R. M. et al. (2001) Dev Biol 235: 378-387]. 24-48 hr after transfection, cells were harvested and processed for the various experiments. MG-132 (Sigma) was used at 20 μM for 5 hr; LiCl (40 mM) was added for 6 hr, and CKI-7 (100 μM) for 16 hr prior to harvesting. β-catenin, axin or GSK-30 in cell lysates were detected using anti-Myc (Ab-1, Oncogenes Research Products, 2 μg/ml), anti-Flag (M2, Sigma, 1 μg/ml) and anti-HA (12CA5 ascites fluid; 1:5000) antibodies, respectively. GFP expression was monitored with anti-GFP antibody (JL-8, Clontech, 1 μg/ml). In some experiments (FIG. 4) GSK-3β was detected using anti-GSK-3β monoclonal antibodies (clone 7, Transduction Laboratories, 0.1 μg/ml). Endogenous and exogenous β-catenin (FIGS. 5d and 6a) were detected with anti-β-catenin antibodies (clone 14, Transduction Laboratories) (0.25 μg/ml).
Western blot and mass spectrometry (MS). Three different commercial anti-β-catenin phospho-peptide antibodies were used: i) Anti-phospho-Thr41/Ser 45 (Cell Signaling Technology), a polyclonal antibody specific for both pT41 and pS45 (otp41,45). ii) Anti-phospho-Ser33/37/Thr41 (Cell Signaling Technology), a polyclonal antibody recognizing pS33 (αp33). These two polyclonal antibodies were used at a 1:1000 dilution, according to the manufacturer's instructions. iii) anti-phospho-Ser 33/37 (BC-22, Sigma), a monoclonal antibody specific for pS37 (used as ascites fluid at a 1:3000 dilution; αp37). Antibody specificities were determined by phosphopeptide inhibition studies. D^32S(PO4)GIHSGATTTAPS^45 abolished the αp33, but not the αp37 signal; D^32SGIHS(PO4)GATTTAPS^45 blocked the αp37 but not the αp33 signal. […] Proteins for MS analysis were immunopurified by M2 Flag-affinity beads (Sigma), separated by SDS-PAGE, Coomassie stained and the β-catenin bands were in-gel digested with endoproteinase Asp-N. The resulting peptides were desalted on small columns, eluted with 20% MeOH, 5% HCOOH, and analyzed by nanoelectrospray mass spectrometry [Yaron et al. (1998) id ibid.], using a quadrupole time-of-flight mass spectrometer (PE-Sciex, Canada).
GSK-3β is traditionally known to target the phosphorylation of +4P-primed substrates [Frame, S. et al. (2001) Mol Cell 7: 1321-1327], a specificity supported by recent structural studies of the enzyme [Dajani, R. et al (2001) Cell 105: 721-732]. The fact that the S45 phosphorylation site is not preceded by a +4P priming site led to the proposition that the molecular complex of axin and GSK-3β is capable of bypassing the priming requirement of the uncomplexed enzyme [Cohen and Frame (2001) id ibid.]. To assess the contribution of GSK-30 in axin-mediated S45 phosphorylation, two types of experiments were carried out. In the first set, 293 cells were incubated prior to harvesting with LiCl, a GSK-3β inhibitor capable of mimicking a Wnt effect [Klein, P. S. and D. A. Melton (1996) Proc Natl Acad Sci USA 93: 8455-8459; Stambolic, V. et al. (1996) Curr Biol 6: 1664-1668].

MITF-M promoter = assay: pGL3-MITF/M luciferase reporter assay in LB33B1 melanoma cells; assay type: cell-based; settings: reporter-transfected B1 (LB33B1) cells; 20 mM LiCl for 24 hours
Procedure: FIG. 10c: MITF transcriptional activity requires β-catenin phosphorylation. The two related melanoma cell lines LB33A1 and LB33B1 were transfected with the pGL3-MITF/M luciferase reporter plasmid [Takeda et al. (2000) J Biol Chem 275: 14013-6] alone or together with DvlΔPDZ expression plasmid. 24 hours after transfection, one sample of cells was treated with 20 mM LiCl for 24 hours, as indicated. Cells were harvested and their lysate luciferase activity was determined using Promega's Luciferase Assay System. MITF-M transcriptional activity is expressed in Relative Luciferase Units (RLU). A TCF mutant-site reporter (pGL3-MITF/M195.3) was used to control TCF-independent transcription.
Cells were transfected with the TOPFLASH or pGL3-MITF/M luciferase reporter plasmids [Korinek et al., (1997) Science, 275: 1752-3; Takeda et al. (2000) J. Biol. Chem. 275: 14013-6] and the relevant expression plasmid combinations. 24 hours after transfection the cells were harvested. Luciferase activity was determined in the cells' lysate using Promega's Luciferase Assay System. The transcription activity is expressed in Relative Luciferase Units (RLU). TCF mutant-site reporters (FOPFLASH and pGL3-MITF/M195.3) were used to control TCF-independent transcriptional transactivation. […]

endogenous β-catenin = assay: Phosphorylation of endogenous β-catenin in proteasome-inhibited HeLa cells with kinase inhibitors; assay type: cell-based; settings: CKI-7 100 μM; for S33 phosphorylation of endogenous β-catenin: LiCl 40 mM
Procedure: FIG. 5d: Effects of specific kinase inhibitors on the phosphorylation of endogenous β-catenin at S41,45 and S33 in HeLa cells. CKI-7 was used at 100 μM, H89 at 5 μM and LiCl at 40 mM. β-catenin was detected with anti-β-catenin antibody, or anti-phospho-p-catenin antibodies.
as §1
Western blot and mass spectrometry (MS). Three different commercial anti-β-catenin phospho-peptide antibodies were used: i) Anti-phospho-Thr41/Ser 45 (Cell Signaling Technology), a polyclonal antibody specific for both pT41 and pS45 (otp41,45). ii) Anti-phospho-Ser33/37/Thr41 (Cell Signaling Technology), a polyclonal antibody recognizing pS33 (αp33). […] Antibody specificities were determined by phosphopeptide inhibition studies. […]
In another set of experiments the in vivo role of CKI in S45 phosphorylation was analyzed, using two dominant negative CKIε constructs (dnXCKIε K85R and D128N) [McKay et al. (2001) id ibid.] and a specific CKI inhibitor (CKI-7) [Chijiwa, T. et al. (1989) J Biol Chem 264: 4924-4927]. […]

β-catenin [2] = assay: β-catenin phosphorylation in B1 melanoma cells; assay type: cell-based; settings: data not shown
Procedure: (§2) The highly metastatic melanoma cell line LB33B1 (B1) is a derivative of the low grade malignant LB33A1 (A1) cells [Ikeda H. et al., (1997) Immunity 6(2): 199-208]. Both cell lines harbor a similar high content of β-catenin, irrespective of proteasome inhibition, yet the B1 β-catenin is phosphorylated (FIG. 10b). […] To assess the contribution of phosphorylated versus non-phosphorylated β-catenin to the MITF-transcriptional activity, reporter-transfected B1 cells were treated with LiCl, which suppresses GSK3 phosphorylation, or cotrasfected with Dvl-ΔPDZ, which cannot cooperate with Frat1, yet suppresses S45 phosphorylation. […] Abrogating β-catenin phosphorylation in melanoma cells may compromise their growth and indeed, treatment of B1 melanoma cells with CKI7, a small-molecule specific CKI inhibitor, slowed their proliferation (FIG. 10d) along with suppressing the phosphorylation of β-catenin (data not shown).

LB33B1 cells = assay: LB33B1 melanoma cell growth, live cell count 24 hours post treatment; assay type: cell-based; settings: increasing concentrations of CKI7, live cells counted 24 hours post treatment
Procedure: FIG. 10d: Blocking β-catenin phosphorylation in a melanoma cell line affects cell growth. LB33B1 cells were treated with increasing concentrations of the S45 phosphorylation inhibitor CKI7 and live cells were counted 24 hours post treatment. • Abbreviations: U.T., untreated or untransfected; Rel. ce. numb. 24 hrs. po. treat., relative cell numbers 24 hours post-treatment.
as §2

[3] = MG-132 treated, LiCl 40 mM for 6 hr

Row | SMILES | S45 phosphorylation of T41A mutated β-catenin (β-catenin [1]; MG-132 treated, LiCl 40 mM) | axin-induced S33/37 phosphorylation of wt β-catenin (β-catenin [1]; [3]) | axin-induced T41/S45 phosphorylation signal of wt β-catenin (β-catenin [1]; [3]) | MS analysis of S45 peptides, treated versus non-treated cells (β-catenin [1]; data not shown) | MITF promoter activity (MITF-M promoter) | S33 phosphorylation of endogenous β-catenin (endogenous β-catenin) | axin-induced p45 signal of wt β-catenin (β-catenin [1]; CKI-7 100 μM for 16 hr) | constitutive S45 phosphorylation of 45PKA β-catenin (β-catenin [1]; CKI-7 100 μM for 16 hr, H89 data not shown) | phosphorylation of β-catenin (β-catenin [2]) | proliferation of B1 melanoma cells (LB33B1 cells) | S45/T41 phosphorylation of endogenous β-catenin (endogenous β-catenin)
1 | [Cl-].[Li+] [LiCl] | no effect | abolished | minimally affected | no difference | inhibition | exclusively blocked | – | – | – | – | –
2 | NCCNS(=O)(=O)c1ccc(Cl)c2ccncc12 [CKI-7] | – | – | – | – | – | suppressed | diminished | did not affect | suppressing | slowed | suppressed
